In patent US20220348595A1, “COMPOUNDS AND METHODS FOR THE TARGETED DEGRADATION OF ESTROGEN RECEPTORS” (Endotarget Inc., priority 2021, published 2022):

Legend:
Assay type in all cases: cell-based
[1] = system: MCF-7 breast cancer cells; assay: MCF-7 proliferation / cell viability assay; conditions: Homo sapiens, MCF7; MCF-7 proliferation with 0.1 nM 17-beta estradiol; read-out: IC50 (anti-proliferation)
Method in brief: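 Survival ratio, with vehicle (DMSO) as 100%, was derived from Coulter-counted viable cell numbers. Cells were grown in 5% FBS DMEM and dosed for 5 days across six concentrations between 10^−10 M and 10^−5 M.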

ER = biological target: T1, ER (Homo sapiens, UniProt P03372); assay: ER antagonism (T47D ERE luciferase), T47d-kb-Luc cells; conditions: read-out: IC50 (ER antagonistm)
T1 construct: endogenous in cells; host or cells: T47d-kb-Luc (T47D stably transfected with a luciferase reporter gene only)
T1 sequence (P03372 1-595): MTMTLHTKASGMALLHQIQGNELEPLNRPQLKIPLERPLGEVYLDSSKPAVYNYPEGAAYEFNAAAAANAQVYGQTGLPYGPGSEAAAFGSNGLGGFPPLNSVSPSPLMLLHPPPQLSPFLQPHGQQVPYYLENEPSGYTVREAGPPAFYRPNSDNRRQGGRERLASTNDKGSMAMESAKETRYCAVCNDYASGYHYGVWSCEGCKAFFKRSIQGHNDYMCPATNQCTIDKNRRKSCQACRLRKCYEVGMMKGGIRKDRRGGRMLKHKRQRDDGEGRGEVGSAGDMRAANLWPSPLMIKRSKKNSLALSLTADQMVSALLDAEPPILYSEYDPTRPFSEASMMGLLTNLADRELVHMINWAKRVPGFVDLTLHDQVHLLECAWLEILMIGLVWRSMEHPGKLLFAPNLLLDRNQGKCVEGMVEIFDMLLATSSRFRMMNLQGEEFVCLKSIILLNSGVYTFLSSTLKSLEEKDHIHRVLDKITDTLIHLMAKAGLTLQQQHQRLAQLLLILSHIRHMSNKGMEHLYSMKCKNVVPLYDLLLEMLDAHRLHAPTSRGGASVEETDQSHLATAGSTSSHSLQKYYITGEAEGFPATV
Method in brief: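 Five sample concentrations, each in quadruplicate and repeated in at least three experiments, were tested for blocking of estradiol activity. Values were expressed relative to the estradiol control. The cell system was the T47d-kb-Luc stable breast cancer line.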

ERα = biological target: T2, ERα (Homo sapiens, UniProt P03372); assay: ER degradation in MCF-7 cells (Western blot); conditions: for DC50: ER degradation, 24 hours; for Dmax: MCF7, Maximal ER degradation, read-out: Dmax
T2 construct: endogenous in cells; host or cells: MCF-7
T2 sequence (P03372 1-595): T1 sequence (P03372 1-595)
Method in brief: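 ERα levels assessed by Western blot (50 μg lysate protein, infrared scanner) after 24-hour exposure of MCF-7 cells to varied compound concentrations. Values reported as DC50, the concentration halving ER expression, and Dmax, the maximal ER reduction achieved across tested concentrations.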

SMILES | IC50 [1] [nM] | IC50 (ER) [nM] | DC50 (ERα) [nM] | Dmax (ERα) [%]
CC/C(=C(\c1ccc(B(O)O)cc1)c1ccc(N2CCN(CCCN3CCN(c4ccc5c(c4)CN(C4CCC(=O)NC4=O)C5=O)CC3)CC2)cc1)c1ccccc1 (centres unmarked) [Compound 45, (Z)-(4-(1-(4-(4-(3-(4-(2-(2,6-dioxopiperidin-3-yl)-1-oxoisoindolin-5-yl)piperazin-1-yl)propyl)piperazin-1-yl)phenyl)-2-phenylbut-1-en-1-yl)phenyl)boronic acid] | 10 to 50 | < 10 | < 10 | > 90
CC/C(=C(/c1ccc(B(O)O)cc1)c1ccc(N2CCN(CCCN3CCN(c4ccc5c(c4)CN(C4CCC(=O)NC4=O)C5=O)CC3)CC2)cc1)c1ccccc1 (centres unmarked) [Compound 46, (E)-(4-(1-(4-(4-(3-(4-(2-(2,6-dioxopiperidin-3-yl)-1-oxoisoindolin-5-yl)piperazin-1-yl)propyl)piperazin-1-yl)phenyl)-2-phenylbut-1-en-1-yl)phenyl)boronic acid] | 10 to 50 | < 10 | < 10 | > 90
CC/C(=C(\c1ccc(B(O)O)cc1)c1ccc(C2CCN(CCCN3CCN(c4ccc5c(c4)C(=O)N(C4CCC(=O)NC4=O)C5=O)CC3)CC2)cc1)c1ccccc1 (centres unmarked) [Compound 47] | 10 to 50 | 10 to 50 | < 10 | > 90
CC/C(=C(/c1ccc(B(O)O)cc1)c1ccc(C2CCN(CCCN3CCN(c4ccc5c(c4)C(=O)N(C4CCC(=O)NC4=O)C5=O)CC3)CC2)cc1)c1ccccc1 (centres unmarked) [Compound 48, (E)-(4-(1-(4-(1-(3-(4-(2-(2,6-dioxopiperidin-3-yl)-1,3-dioxoisoindolin-5-yl)piperazin-1-yl)propyl)piperidin-4-yl)phenyl)-2-phenylbut-1-en-1-yl)phenyl)boronic acid] | 10 to 50 | 10 to 50 | < 10 | > 90
CC/C(=C(\c1ccc(B(O)O)cc1)c1ccc(C2CCN(CCCN3CCN(c4ccc5c(c4)CN(C4CCC(=O)NC4=O)C5=O)CC3)CC2)cc1)c1ccccc1 (centres unmarked) [Compound 49, (Z)-(4-(1-(4-(1-(3-(4-(2-(2,6-dioxopiperidin-3-yl)-1-oxoisoindolin-5-yl)piperazin-1-yl)propyl)piperidin-4-yl)phenyl)-2-phenylbut-1-en-1-yl)phenyl)boronic acid] | 10 to 50 | < 10 | < 10 | > 90
CC/C(=C(/c1ccc(B(O)O)cc1)c1ccc(C2CCN(CCCN3CCN(c4ccc5c(c4)CN(C4CCC(=O)NC4=O)C5=O)CC3)CC2)cc1)c1ccccc1 (centres unmarked) [Compound 50, (E)-(4-(1-(4-(1-(3-(4-(2-(2,6-dioxopiperidin-3-yl)-1-oxoisoindolin-5-yl)piperazin-1-yl)propyl)piperidin-4-yl)phenyl)-2-phenylbut-1-en-1-yl)phenyl)boronic acid] | 10 to 50 | < 10 | < 10 | > 90
CC/C(=C(\c1ccc(B(O)O)cc1)c1ccc(N2CCC(CCCN3CCN(c4ccc5c(c4)C(=O)N(C4CCC(=O)NC4=O)C5=O)CC3)CC2)cc1)c1ccccc1 (centres unmarked) [Compound 51, (Z)-(4-(1-(4-(4-(3-(4-(2-(2,6-dioxopiperidin-3-yl)-1,3-dioxoisoindolin-5-yl)piperazin-1-yl)propyl)piperidin-1-yl)phenyl)-2-phenylbut-1-en-1-yl)phenyl)boronic acid] | 10 to 50 | 10 to 50 | < 10 | > 90
CC/C(=C(/c1ccc(B(O)O)cc1)c1ccc(N2CCC(CCCN3CCN(c4ccc5c(c4)C(=O)N(C4CCC(=O)NC4=O)C5=O)CC3)CC2)cc1)c1ccccc1 (centres unmarked) [Compound 52, (E)-(4-(1-(4-(4-(3-(4-(2-(2,6-dioxopiperidin-3-yl)-1,3-dioxoisoindolin-5-yl)piperazin-1-yl)propyl)piperidin-1-yl)phenyl)-2-phenylbut-1-en-1-yl)phenyl)boronic acid] | 10 to 50 | 10 to 50 | < 10 | > 90
CC/C(=C(\c1ccc(B(O)O)cc1)c1ccc(N2CCC(CCCN3CCN(c4ccc5c(c4)CN(C4CCC(=O)NC4=O)C5=O)CC3)CC2)cc1)c1ccccc1 (centres unmarked) [Compound 53, (Z)-(4-(1-(4-(4-(3-(4-(2-(2,6-dioxopiperidin-3-yl)-1-oxoisoindolin-5-yl)piperazin-1-yl)propyl)piperidin-1-yl)phenyl)-2-phenylbut-1-en-1-yl)phenyl)boronic acid] | 10 to 50 | < 10 | < 10 | > 90
CC/C(=C(/c1ccc(B(O)O)cc1)c1ccc(N2CCC(CCCN3CCN(c4ccc5c(c4)CN(C4CCC(=O)NC4=O)C5=O)CC3)CC2)cc1)c1ccccc1 (centres unmarked) [Compound 54] | 10 to 50 | < 10 | < 10 | > 90
CC/C(=C(\c1ccc(B(O)O)cc1)c1ccc(N2CCN(CCCC3CCN(c4ccc5c(c4)CN(C4CCC(=O)NC4=O)C5=O)CC3)CC2)cc1)c1ccccc1 (centres unmarked) [Compound 57, (Z)-(4-(1-(4-(4-(3-(1-(2-(2,6-dioxopiperidin-3-yl)-1-oxoisoindolin-5-yl)piperidin-4-yl)propyl)piperazin-1-yl)phenyl)-2-phenylbut-1-en-1-yl)phenyl)boronic acid] | 10 to 50 | 10 to 50 | < 10 | > 90
CC/C(=C(/c1ccc(B(O)O)cc1)c1ccc(N2CCN(CCCC3CCN(c4ccc5c(c4)CN(C4CCC(=O)NC4=O)C5=O)CC3)CC2)cc1)c1ccccc1 (centres unmarked) [Compound 58] | 10 to 50 | 10 to 50 | < 10 | > 90

Further lines, results first:

IC50 [1] [nM] | IC50 (ER) [nM] | DC50 (ERα) [nM] | Dmax (ERα) [%] | SMILES
< 10 | 10 to 50 | < 10 | > 90 | CC/C(=C(\c1ccc(B(O)O)cc1)c1ccc(N2CCN(CCCN3CCN(c4ccc5c(c4)C(=O)N(C4CCC(=O)NC4=O)C5=O)CC3)CC2)cc1)c1ccccc1 (centres unmarked) [Compound 43, (Z)-(4-(1-(4-(4-(3-(4-(2-(2,6-dioxopiperidin-3-yl)-1,3-dioxoisoindolin-5-yl)piperazin-1-yl)propyl)piperazin-1-yl)phenyl)-2-phenylbut-1-en-1-yl)phenyl)boronic acid]
10 to 50 | < 10 | < 10 | > 90 | CC/C(=C(/c1ccc(B(O)O)cc1)c1ccc(N2CCN(CCCN3CCN(c4ccc5c(c4)C(=O)N(C4CCC(=O)NC4=O)C5=O)CC3)CC2)cc1)c1ccccc1 (centres unmarked) [Compound 44, (E)-(4-(1-(4-(4-(3-(4-(2-(2,6-dioxopiperidin-3-yl)-1,3-dioxoisoindolin-5-yl)piperazin-1-yl)propyl)piperazin-1-yl)phenyl)-2-phenylbut-1-en-1-yl)phenyl)boronic acid]
10 to 50 | 10 to 50 | < 10 | > 75 | CC/C(=C(\c1ccc(B(O)O)cc1)c1ccc(N2CCN(CCCC3CCN(c4ccc5c(c4)C(=O)N(C4CCC(=O)NC4=O)C5=O)CC3)CC2)cc1)c1ccccc1 (centres unmarked) [Compound 55, (Z)-(4-(1-(4-(4-(3-(1-(2-(2,6-dioxopiperidin-3-yl)-1,3-dioxoisoindolin-5-yl)piperidin-4-yl)propyl)piperazin-1-yl)phenyl)-2-phenylbut-1-en-1-yl)phenyl)boronic acid]
10 to 50 | 10 to 50 | < 10 | > 75 | CC/C(=C(/c1ccc(B(O)O)cc1)c1ccc(N2CCN(CCCC3CCN(c4ccc5c(c4)C(=O)N(C4CCC(=O)NC4=O)C5=O)CC3)CC2)cc1)c1ccccc1 (centres unmarked) [Compound 56, (E)-(4-(1-(4-(4-(3-(1-(2-(2,6-dioxopiperidin-3-yl)-1,3-dioxoisoindolin-5-yl)piperidin-4-yl)propyl)piperazin-1-yl)phenyl)-2-phenlbut-1-en-1-yl)phenyl)boronic acid]
10 to 50 | 10 to 50 | 10 to 50 | > 90 | CC/C(=C(\c1ccc(B(O)O)cc1)c1ccc(N2CCN(CCN3CCN(c4ccc5c(c4)C(=O)N(C4CCC(=O)NC4=O)C5=O)CC3)CC2)cc1)c1ccccc1 (centres unmarked) [Compound 59, (Z)-(4-(1-(4-(4-(2-(4-(2-(2,6-dioxopiperidin-3-yl)-1,3-dioxoisoindolin-5-yl)piperazin-1-yl)ethyl)piperazin-1-yl)phenyl)-2-phenylbut-1-en-1-yl)phenyl)boronic acid]
